Test [1] has as its target HLA-DRB1*0401 (Homo sapiens (Human), UniProt P01903+P01911, A100K/A169T/DEL228-266/F76Y/I96L/K127E/L162R/M171V/N62H/P40V/Q125Y/R42H/S133A/S149N/S66Y/V115G/V209L/W38E). Briefly: HLA-DR4 HTRF assay. The conditions noted are these: inhibition of loading of Alexa Fluor 647-labeled Cit-CII peptide onto HLA-DR4 (CLIP cleaved). The format is binding. An outline of the steps:
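HLA-DRB1*04:01 construct (α/β fused to human Fc, CLIP pre-cleaved by HRV3C overnight at 4° C) at 3 nM was preincubated 45 min with compound and 1 nM anti-Fc-Tb donor, then 40 nM Alexa647-Cit-CII1236-1249 peptide added. After 90 min at 37° C, the 665/620 nm HTRF ratio gave % inhibition; IC50 by nonlinear regression.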

Test [2] concerns HLA-DR4 restricted mouse T cell hybridoma line (DR4.CII.36.8) with HLA-DRB1*04:01-expressing Boleth cells. Briefly: HLA-DR4-restricted peptide-specific T cell-based assay (hybridoma assay). The note with it: 6 h, inhibition of IL-2 production, CII259-273 peptide presented by Boleth cells. An outline of the steps: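 IC50 values derive from 4-parameter logistic fits of IL-2 AlphaLISA signal over 8-point duplicate titrations. Compound and HLA-DRB1*04:01 Boleth APCs were preincubated 1 h, 37° C., before adding CII259-273-restricted DR4.CII.36.8 hybridoma cells with peptide for 6 h at 37° C., in DMEM/1% FCS.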

In test [3] the test system is human peripheral blood CD4+ helper T cells. Kind of test: Pan-CD4+ T cell activation (off-target assay). The format is cell-based. The conditions noted are these: Homo sapiens, T-cell, 24 h, anti-CD3/anti-CD28 stimulation, IL-2 production by ELISA. In a few lines: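 IL-2 secretion was measured by ELISA of culture supernatant after 24 h of TCR stimulation. Stimulation used anti-CD3 coated at 1 μg/mL and 1 μg/mL soluble anti-CD28 on human blood CD4+ helper T cells without HLA-DR-expressing APCs, with compound or vehicle present.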

pIC50: −log10 of the molar value. Bounds are passed on as bounds.

On to `CC[C@H]1CC(=O)c2ccc(O[C@H](c3ccncc3)c3ccc(C(N)=O)cc3)cc2O1` (single isomer, unassigned) [Example 41b, 4-((*S)—(((*S)-2-ethyl-4-oxochroman-7-yl)oxy)(pyridin-4-yl)methyl)benzamide], for which the pIC50 in test [1] is 5.96; in test [2] (Mus musculus, T-cell), 5.82; in test [3], less than 4.82.
Take `Cc1cc2c(c(C)c1O[C@H](c1ccncc1)c1ccc(C#N)cc1)OCCC2=O` (single isomer, unassigned) [Example 88b, (*S)-4-(((6,8-dimethyl-4-oxochroman-7-yl)oxy)(pyridin-4-yl)methyl)benzonitrile]: the pIC50 in test [1] is 6.44; in test [2] (Mus musculus, T-cell), 5.23; in test [3], 5.00.
Consider `Cc1c(O[C@H](c2ccc(C(N)=O)cc2)c2ccccc2F)ccc2c1OCCC2=O` (single isomer, unassigned) [Example 68a, (*R)-4-((2-Fluorophenyl)((8-methyl-4-oxochroman-7-yl)oxy)methyl)benzamide], for which the pIC50 is 5.82 in test [1]; 5.25 in test [2] (Mus musculus, T-cell); 5.33 in test [3].
As to `O=C1CCOc2cc(O[C@@H](c3ccncc3)C3CCCCC3)ccc21` (single isomer, unassigned) [Example 38a, (*R)-7-(cyclohexyl(pyridin-4-yl)methoxy)chroman-4-one], the pIC50 is 5.34 in test [1]; 5.40 in test [2] (Mus musculus, T-cell); 5.33 in test [3].
For `NC(=O)c1ccc([C@@H](Oc2ccc3c(c2F)OCCC3=O)c2ccncc2)cc1` (single isomer, unassigned) [Example 50a, (*R)-4-(((8-Fluoro-4-oxochroman-7-yl)oxy)(pyridin-4-yl)methyl)benzamide] the same measures were 5.72, 6.62 and 5.00.
In the case of `Cc1c(O[C@@H](c2ccccc2)c2ccc(C(=O)O)cc2)ccc2c1OCCC2=O` (single isomer, unassigned) [Example 70b, (*S)-4-(((8-methyl-4-oxochroman-7-yl)oxy)(phenyl)methyl)benzoic acid], the pIC50 in test [1] was 5.82; in test [2] (Mus musculus, T-cell), 5.32; in test [3], 5.00.
With `O=C1CCOc2cc(O[C@@H](c3ccncc3)c3ccc(F)cc3)ccc21` (single isomer, unassigned) [Example 3a, (*R)-7-((4-Fluorophenyl)(pyridin-4-yl)methoxy)chroman-4-one], the negative-log IC50 (pIC50) was 5.80 in test [1]; 5.38 in test [2] (Mus musculus, T-cell); 4.82 in test [3].
Regarding `O=C1CCOc2cc(O[C@H](c3ccncc3)C3CCCCC3)ccc21` (single isomer, unassigned) [Example 38b, (*S)-7-(cyclohexyl(pyridin-4-yl)methoxy)chroman-4-one], the pIC50 in test [1] is 5.39; in test [2] (Mus musculus, T-cell), 5.26; in test [3], less than 4.82.
In the case of `COc1cc(O[C@H](c2ccncc2)c2ccc(C(N)=O)cc2)cc2c1C(=O)CCO2` (single isomer, unassigned) [Example 77b, (*S)-4-(((5-methoxy-4-oxochroman-7-yl)oxy)(pyridin-4-yl)methyl)benzamide], the negative-log IC50 (pIC50) in test [1] is 5.82; in test [2] (Mus musculus, T-cell) it was 5.26; in test [3], 5.00.
Consider `NC(=O)c1ccc([C@H](Oc2ccc3c(c2)O[C@H](c2ccccc2)CC3=O)c2ccncc2)cc1` (single isomer, unassigned) [Example 42b, 4-((*S)—(((*S)-4-oxo-2-phenylchroman-7-yl)oxy)(pyridin-4-yl)methyl)benzamide], for which the negative logarithm of the IC50 (pIC50) is 5.12 in test [1]; 4.92 in test [2] (Mus musculus, T-cell); 5.00 in test [3].
With `Cc1cc([C@@H](Oc2c(F)cc3c(c2C)OCCC3=O)c2ccc(C(N)=O)cc2)cc(C)n1` (single isomer, unassigned) [Example 94b, (*S)-4-((2,6-dimethylpyridin-4-yl)((6-fluoro-8-methyl-4-oxochroman-7-yl)oxy)methyl)benzamide], the pIC50 was 6.64 in test [1]; 6.05 in test [2] (Mus musculus, T-cell); 5.00 in test [3].
In the case of `NC(=O)c1ccc([C@@H](Oc2cc(F)c3c(c2)OCCC3=O)c2ccncc2)cc1` (single isomer, unassigned) [Example 51a, (*R)-4-(((5-Fluoro-4-oxochroman-7-yl)oxy)(pyridin-4-yl)methyl)benzamide], the negative logarithm of the IC50 (pIC50) is 5.44 in test [1]; 6.60 in test [2] (Mus musculus, T-cell); 4.82 in test [3].
In the case of `NC(=O)c1ccc([C@H](Oc2ccc3c(c2)OCCC3=O)c2ccnc3ccccc23)cc1` (single isomer, unassigned) [Example 22b, (*S)-4-(((4-oxochroman-7-yl)oxy)(quinolin-4-yl)methyl)benzamide], the pIC50 was 5.92 in test [1]; 5.66 in test [2] (Mus musculus, T-cell); 4.82 in test [3].
Taken in the same sequence, the figures for `CC[C@@H]1COc2cc(O[C@H](c3ccncc3)c3ccc(C(N)=O)cc3)ccc2C1=O` (single isomer, unassigned) [Example 45a, 4-((*S)—(((*R)-3-ethyl-4-oxochroman-7-yl)oxy)(pyridin-4-yl)methyl)benzamide] were 5.96, 5.47 and less than 4.82.
For `O=C1CCOc2cc(O[C@H](c3ccncc3)c3cccc(F)c3)ccc21` (single isomer, unassigned) [Example 2a, (*R)-7-((3-Fluorophenyl)(pyridin-4-yl)methoxy)chroman-4-one] the same measures were 5.80, 5.77 and 4.82.
Taken in the same sequence, the figures for `NC(=O)c1ccc([C@H](Oc2ccc3c(c2F)OCCC3=O)c2ccncc2)cc1` (single isomer, unassigned) [Example 50b, (*S)-4-(((8-Fluoro-4-oxochroman-7-yl)oxy)(pyridin-4-yl)methyl)benzamide] were 5.72, 5.60 and less than 4.82.
Regarding `NC(=O)c1cccc([C@H](Oc2ccc3c(c2)OCCC3=O)c2ccncc2)c1` (single isomer, unassigned) [Example 9b, (*S)-3-(((4-oxochroman-7-yl)oxy)(pyridin-4-yl)methyl)benzamide], the pIC50 is 6.01 in test [1]; 4.96 in test [2] (Mus musculus, T-cell); 5.33 in test [3].
`COc1ccccc1C(Oc1ccc2c(c1)OCCC2=O)c1ccncc1` (racemic) [Example 14, 7-((2-Methoxyphenyl)(pyridin-4-yl)methoxy)chroman-4-one]: the pIC50 in test [1] was 5.62; in test [2] (Mus musculus, T-cell) it was 5.30; in test [3] it was less than 4.82.
In the case of `NC(=O)c1ccc([C@@H](Oc2ccc3c(c2)O[C@H](c2ccccc2)CC3=O)c2ccncc2)cc1` (single isomer, unassigned) [Example 43b, 4-((*R)—(((*S)-4-oxo-2-phenylchroman-7-yl)oxy)(pyridin-4-yl)methyl)benzamide], the negative logarithm of the IC50 (pIC50) was 5.31 in test [1]; 6.20 in test [2] (Mus musculus, T-cell); 5.00 in test [3].
With `Cc1c(O[C@H](c2ccc(C#N)cc2)c2ccc(C(N)=O)cc2)ccc2c1OCCC2=O` (single isomer, unassigned) [Example 59a, (*R)-4-((4-cyanophenyl)((8-methyl-4-oxochroman-7-yl)oxy)methyl)benzamide], the negative logarithm of the IC50 (pIC50) is 5.92 in test [1]; 5.49 in test [2] (Mus musculus, T-cell); 5.33 in test [3].
As for `CCCc1c(O[C@@H](c2ccncc2)c2ccc(C(N)=O)cc2)ccc2c1OCCC2=O` (single isomer, unassigned) [Example 80a, (*R)-4-(((4-Oxo-8-propylchroman-7-yl)oxy)(pyridin-4-yl)methyl)benzamide], the pIC50 is 6.18 in test [1]; 7.49 in test [2] (Mus musculus, T-cell); 5.23 in test [3].
In the case of `Cc1c(O[C@@H](c2ccc(C(N)=O)cc2)c2ccc(Cl)cn2)ccc2c1OCCC2=O` (single isomer, unassigned) [Example 62b, (*S)-4-((5-chloropyridin-2-yl)((8-methyl-4-oxochroman-7-yl)oxy)methyl)benzamide], the negative logarithm of the IC50 (pIC50) in test [1] is 5.85; in test [2] (Mus musculus, T-cell) it was 5.74; in test [3], 5.57.
Taken in the same sequence, the figures for `NC(=O)c1ccc([C@H](Oc2ccc3c(c2)OCCC3=O)c2ccncc2C(F)(F)F)cc1` (single isomer, unassigned) [Example 19b, (*S)-4-(((4-oxochroman-7-yl)oxy)(3-(trifluoromethyl)pyridin-4-yl)methyl)benzamide] were 5.92, 5.12 and 5.33.
Take `Cc1c(O[C@@H](c2ccncc2)c2ccc(C(N)=O)cc2)ccc2c1OCCC2=O` (single isomer, unassigned) [Example 48a, (*R)-4-(((8-methyl-4-oxochroman-7-yl)oxy)(pyridin-4-yl)methyl)benzamide]: the pIC50 was 6.17 in test [1], 6.85 in test [2] and 5.00 in test [3].

As a reminder, the pIC50 is the IC50 on a negative log10 scale, so that one unit is a factor of ten.

Source of the values: patent publication US12516038B2, “Inhibitors of antigen presentation by HLA-DR” (Janssen Pharmaceutica NV, priority 2020, dated 2026).
